In paper PMC12136187, “A Full-Spectrum Generative Lead Discovery (FSGLD) Pipeline via DRUG-GAN: A Multiscale Method for Drug-like/Target-specific Compound Library Generation” (Research Square, 2025):
pKi: −log10 of the molar value.

Biological target: T1, CB2 receptor (cannabinoid receptor 2) (Homo sapiens, UniProt P34972)
T1 construct: gene CNR2
Experiment: radioligand binding assay, dose-response

T1 sequence (P34972 whole entry): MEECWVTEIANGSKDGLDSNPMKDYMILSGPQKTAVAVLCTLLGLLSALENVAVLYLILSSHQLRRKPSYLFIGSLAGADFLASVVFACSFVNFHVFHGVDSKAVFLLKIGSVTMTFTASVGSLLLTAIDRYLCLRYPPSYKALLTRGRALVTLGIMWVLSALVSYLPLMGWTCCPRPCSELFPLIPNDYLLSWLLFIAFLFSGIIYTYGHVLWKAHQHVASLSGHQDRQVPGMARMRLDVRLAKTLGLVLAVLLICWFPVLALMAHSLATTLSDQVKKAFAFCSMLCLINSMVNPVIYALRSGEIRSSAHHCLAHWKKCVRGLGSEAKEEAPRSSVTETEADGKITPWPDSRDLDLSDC

With `CCCn1c(C)c(C(=O)NCC(=O)N2CCCCC2)c2cc(OC)ccc21` [ZINC77179032] the pKi was 5.42.
